PubChem BioAssay (NCI)
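Test compounds were applied to cells in 96-well plates for 48 hours at 5 doses. GI50: concentration for 50% inhibition of growth. TGI marks complete inhibition of growth.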

Tests used:
Assay in all cases: growth of human tumour cells (NCI), 48 h; in the data active means GI50 below about 0.43 µM; inactive means the rest
[1] = test system: MCF7 breast
[2] = test system: CCRF-CEM leukemia
[3] = test system: NCI-H23 lung
[4] = test system: SR leukemia
[5] = test system: IGROV1 ovarian
[6] = test system: HT29 colon
[7] = test system: OVCAR-3 ovarian
[8] = test system: RPMI-8226 leukemia
[9] = test system: HL-60(TB) leukemia
[10] = test system: HOP-92 NSCLC
[11] = test system: SK-MEL-28 melanoma
[12] = test system: A498 renal
[13] = test system: SK-OV-3 ovarian
[14] = test system: SNB-19 CNS
[15] = test system: MDA-MB-468 breast
[16] = test system: MALME-3M melanoma
[17] = test system: MOLT-4 leukemia
[18] = test system: HCT-15 colon
[19] = test system: NCI-H226 lung
[20] = test system: PC-3 prostate
[21] = test system: UO-31 renal
[22] = test system: T-47D breast
[23] = test system: NCI-H460 lung
[24] = test system: DU-145 prostate
[25] = test system: UACC-62 melanoma
[26] = test system: CAKI-1 renal
[27] = test system: SF-539 CNS
[28] = test system: COLO 205 colon
[29] = test system: SK-MEL-5 melanoma
[30] = test system: HCC-2998 colon
[31] = test system: HOP-62 NSCLC
[32] = test system: SW-620 colon
[33] = test system: OVCAR-4 ovarian
[34] = test system: RXF 393 renal
[35] = test system: MDA-MB-435
[36] = test system: K-562 leukemia
[37] = test system: LOX IMVI melanoma
[38] = test system: UACC-257 melanoma
[39] = test system: OVCAR-5 ovarian
[40] = test system: HCT-116 colon
[41] = test system: SN12C renal
[42] = test system: EKVX NSCLC
[43] = test system: OVCAR-8 ovarian
[44] = test system: TK-10 renal
[45] = test system: SNB-75 CNS
[46] = test system: A549 NSCLC
[47] = test system: U251 CNS
[48] = test system: ACHN renal
[49] = test system: SF-268 CNS
[50] = test system: M14 melanoma
[51] = test system: KM12 colon
[52] = test system: SF-295 CNS
[53] = test system: 786-0 renal
[54] = test system: MDA-MB-231 breast
[55] = test system: NCI-H522 lung
[56] = test system: HS 578T breast
[57] = test system: SK-MEL-2 melanoma
[58] = test system: BT-549 breast

CN1CCCN(Cc2ccc(C(=O)Nc3cccc(Nc4ccc5cc(O)ccc5n4)c3)cc2C(F)(F)F)CC1
25.6 µM: TGI [16]
35.9 µM: TGI [8]
31.8 µM: TGI [9] | TGI [31] | TGI [57]
37.2 µM: TGI [43]
30.1 µM: TGI [53]
33.4 µM: TGI [52]
28.5 µM: TGI [20]
31 µM: TGI [39]
16.7 µM: TGI [45]
32.1 µM: TGI [3]
29.6 µM: TGI [29]
24 µM: TGI [27]
29 µM: TGI [11]
36.1 µM: TGI [49]
30 µM: TGI [25] | TGI [33]
32 µM: TGI [5] | TGI [12] | TGI [13] | TGI [55]
28.9 µM: TGI [19] | TGI [32]
inactive: GI50 [1] 9.83 µM | GI50 [2] 4.94 µM | GI50 [3] 16.8 µM | GI50 [4] 1.89 µM | GI50 [5] 17.2 µM | GI50 [6] 13.3 µM | GI50 [7] 16.3 µM | GI50 [8] 11.4 µM | GI50 [9] 11.9 µM | GI50 [10] 10.4 µM | GI50 [11] 13.9 µM | GI50 [12] 17.6 µM | GI50 [13] 17.6 µM | GI50 [14] 17 µM | GI50 [15] 8.88 µM | GI50 [16] 12.6 µM | GI50 [17] 2.05 µM | GI50 [18] 16.4 µM | GI50 [19] 13.8 µM | GI50 [20] 13.1 µM | GI50 [21] 15.2 µM | GI50 [22] 15.8 µM | GI50 [23] 18 µM | GI50 [24] 16.9 µM | GI50 [25] 15.9 µM | GI50 [26] 14.1 µM | GI50 [27] 11.3 µM | GI50 [28] 18.5 µM | GI50 [29] 16.1 µM | GI50 [30] 16.5 µM | GI50 [31] 17.8 µM | GI50 [32] 14.5 µM | GI50 [33] 15 µM | GI50 [34] 12.5 µM | GI50 [35] 10.4 µM | GI50 [36] 1.18 µM | GI50 [37] 12.1 µM | GI50 [38] 14.7 µM | GI50 [39] 15.3 µM | GI50 [40] 6.51 µM | GI50 [41] 17.3 µM | GI50 [42] 16 µM | GI50 [43] 18.9 µM | GI50 [44] 18.5 µM | GI50 [45] 1.17 µM | GI50 [46] 16.2 µM | GI50 [47] 14.8 µM | GI50 [48] 19.7 µM | GI50 [49] 17.3 µM | GI50 [50] 12.7 µM | GI50 [51] 14.1 µM | GI50 [52] 17.3 µM | GI50 [53] 16 µM | GI50 [54] 13.9 µM | GI50 [55] 17 µM | GI50 [56] 14.8 µM | GI50 [57] 17.2 µM
27.8 µM: TGI [26] | TGI [50]
38.4 µM: TGI [48]
28.8 µM: TGI [6]
50.2 µM: TGI [56]
36.7 µM: TGI [23]
31.7 µM: TGI [14] | TGI [41]
33.9 µM: TGI [18]
30.6 µM: TGI [24] | TGI [47]
33.1 µM: TGI [46]
30.5 µM: TGI [30]
21.6 µM: TGI [15]
33.3 µM: TGI [22] | TGI [28]
5.3 µM: TGI [4]
4.54 µM: TGI [36]
31.3 µM: TGI [42]
23.3 µM: TGI [10]
14.5 µM: TGI [17]
27.5 µM: TGI [54]
32.8 µM: TGI [44]
29.9 µM: TGI [7]
25 µM: TGI [37]
24.7 µM: TGI [1]
29.7 µM: TGI [21]
25.7 µM: TGI [2]
26.1 µM: TGI [34]
29.1 µM: TGI [38]
22.1 µM: TGI [35] | TGI [40]
28.1 µM: TGI [51]

COc1ccc(N=Nc2c(N)nn3c(N)c(C#N)c(-c4ccccc4)nc23)cc1
> 100 µM: TGI [1] | TGI [2] | TGI [3] | TGI [4] | TGI [5] | TGI [6] | TGI [7] | TGI [9] | TGI [11] | TGI [12] | TGI [13] | TGI [15] | TGI [16] | TGI [17] | TGI [18] | TGI [21] | TGI [22] | TGI [23] | TGI [25] | TGI [26] | TGI [28] | TGI [29] | TGI [30] | TGI [58] | TGI [32] | TGI [35] | TGI [36] | TGI [38] | TGI [39] | TGI [40] | TGI [41] | TGI [42] | TGI [43] | TGI [44] | TGI [46] | TGI [47] | TGI [48] | TGI [49] | TGI [50] | TGI [51] | TGI [52] | TGI [53] | TGI [55] | TGI [57]
41.5 µM: TGI [31]
52.6 µM: TGI [10]
50.5 µM: TGI [54]
44.1 µM: TGI [14]
29.3 µM: TGI [33]
inactive: GI50 [1] 1.89 µM | GI50 [2] > 100 µM | GI50 [3] 5.05 µM | GI50 [4] > 100 µM | GI50 [5] 2.6 µM | GI50 [6] > 100 µM | GI50 [7] 4.18 µM | GI50 [9] > 100 µM | GI50 [10] 2.65 µM | GI50 [11] > 100 µM | GI50 [12] > 100 µM | GI50 [13] 6.04 µM | GI50 [14] 5.06 µM | GI50 [15] 4.07 µM | GI50 [16] 5.46 µM | GI50 [17] > 100 µM | GI50 [18] > 100 µM | GI50 [19] 2.56 µM | GI50 [21] 8.22 µM | GI50 [22] 2.75 µM | GI50 [23] 4.06 µM | GI50 [25] 20.9 µM | GI50 [26] 4.58 µM | GI50 [27] 3.26 µM | GI50 [28] > 100 µM | GI50 [29] 9.02 µM | GI50 [30] > 100 µM | GI50 [58] 4.29 µM | GI50 [31] 3.7 µM | GI50 [32] > 100 µM | GI50 [33] 2.78 µM | GI50 [34] 3.17 µM | GI50 [35] > 100 µM | GI50 [36] > 100 µM | GI50 [38] > 100 µM | GI50 [39] > 100 µM | GI50 [40] > 100 µM | GI50 [41] 5.8 µM | GI50 [42] 8.82 µM | GI50 [43] 4.61 µM | GI50 [44] 5.88 µM | GI50 [46] > 100 µM | GI50 [47] 3.94 µM | GI50 [48] 4.08 µM | GI50 [49] 5.88 µM | GI50 [50] > 100 µM | GI50 [51] > 100 µM | GI50 [52] 4.03 µM | GI50 [53] 12.8 µM | GI50 [54] 3.66 µM | GI50 [55] 6.25 µM | GI50 [56] 3 µM | GI50 [57] 16.6 µM
18.6 µM: TGI [27]
65 µM: TGI [56]
24.8 µM: TGI [19]
12 µM: TGI [34]
